Values quoted from earlier work as cited in patent publication US20090093865A1, “METHOD AND SYSTEM FOR CONTROLLING THE SPREAD OF MICROORGANISMS AMONG SUBJECTS IN A GROUP” (priority 2006, published 2009).

Test system: methicillin-resistant Staphylococcus aureus
Settings: randomized controlled trial of mupirocin versus placebo (Harbarth et al. 1999)

## C/C(=C\C(=O)OCCCCCCCCC(=O)O)C[C@@H]1OC[C@H](C[C@@H]2O[C@H]2[C@@H](C)[C@H](C)O)[C@@H](O)[C@H]1O [mupirocin]
  carriers in whom methicillin-resistant S. aureus was successfully eradicated: 44%
